Results reported in patent US11953435B2, “Zinc-responsive fluorophores” (Northwestern University, priority 2019, dated 2024).
“Also recorded” adds a separate entry of the source.

Experiment: Metal ion response / selectivity of fluorescence
Conditions: for metal ions that inhibit the zinc response: other metal ions in the presence of excess zinc; for fluorescence response to toxic metals (Cd, Hg, Pb): relative fluorescence intensity; for metal ions to which the probe does not respond: relative fluorescence intensity in the presence of other metal ions
Method: Aqueous solutions were prepared by using de-ionized water with resistivity […], obtained using a Milli-Q water purification system. In order to properly compare the photophysical properties of ZincBY-2, ZincBY-3, and ZincBY-4 to ZincBY-1, the photophysical properties of ZincBY-1 we remeasured. […] Stock solutions of ZincBY-1, ZincBY-2, ZincBY-3, and ZincBY-4 were prepared at concentrations of 5 mM and stored at −20° C. in aliquots that were used immediately after thawing for each experiment. Unless otherwise stated, all spectroscopic methods were conducted in aqueous buffer containing 50 mM HEPES (pH 7.2) and 0.1 M KNO3. UV-visible spectra were acquired on a PerkinElmer Lambda 650 UV/Vis spectrophotometer using quartz cuvettes from Starna (1 cm path length, 10 cm path length used in extinction coefficient and quantum yield determination). Fluorescence spectra were acquired using a PerkinElmer LS 55 fluorescence spectrophotometer. For measurements containing zinc, 99.0% ZnNO3 hexahydrate (final concentration 5 μM) was used. For experiments analyzing apo probes, N,N,N′,N′-Tetrakis(2-pyridylmethyl)ethylenediamine (TPEN) (final concentration 5 μM) was added to solution. Quantum Yield and Extinction Coefficient Determination. Quantum yields for apo and holo ZincBY-1, ZincBY-2, ZincBY-3, and ZincBY-4 were determined by plotting absorbance vs. fluorescence intensity of solutions containing ZincBY-1, ZincBY-2, ZincBY-3, or ZincBY-4 at probe concentrations ranging from 50-250 nM. Serial dilution was used to make solutions at different concentrations. Fluorescein dissolved in 0.1 N NaOH was used as the quantum yield standard, using a literature-determined quantum yield of 0.95.^3 For all fluorophore solutions, fluorescence excitation was set at 490 nm and fluorescence emission was integrated from 510 nm to 650 nm. Zinc Dissociation Constant. Fluorescence spectra were recorded using zinc probes (ZincBY-1, ZincBY-2, ZincBY-3, or ZincBY-4; 200 nM) and ZnSO4 (various concentrations). The solutions were equilibrated in the dark for 1 h prior to measurement. The concentration of ZnSO4 was varied from 1 μM to 9 mM in buffer solution (50 mM HEPES and 0.1 M KNO3, and pH 7.2) containing 10 mM EGTA. Free Zn^2+ was calculated according to a previously reported method (Ref. B4; incorporated by reference in its entirety). Data was fit to the following one-site binding equation: F=(FminKd+Fmax[Zn^2+])/(Kd+[Zn^2+]) pH Response. The fluorescence spectra of zinc probes (ZincBY-2, ZincBY-3, or ZincBY-4; 200 nM) wasere measured at various pH values (4.5-11). The following buffers were used at 50 mM concentration with 0.1 M KNO3: NaOAc/AcOH (pH 4.0-4.5), MES (pH 5.0-6.5), HEPES (pH 7.0-8.0), CHES (pH 8.5-9.5), CAPS (pH 10.0-11.0). Metal Ion Response. The fluorescence spectra of zinc probes (ZincBY-2, ZincBY-3, or ZincBY-4; 200 nM) were measured in the presence an excess of metal ion including 1 mM KNO3, 1 mM NaNO3, 1 mM CaSO4, 1 mM MgSO4, 15 μM MnSO4, 15 μM (NH4)2Fe(SO4)2, 15 μM NH4Fe(SO4)2, 15 μM CoSO4, 15 μM NiSO4, 15 μM CuSO4, 15 μM [Cu(CH3CN)4]PF6, 15 μM CdSO4, 15 μM Hg(NO3)2, 15 μM Pb(NO3)2, or 15 μM ZnSO4. The fluorescence spectra were compared to that of ZincBY-2 (200 nM), ZincBY-3 (200 nM), or ZincBY-4 (200 nM) in the presence of 10 μM TPEN. Determination of octanol-water partition coefficients (log P). A log P value for each probe was determined by agitating nanomolar solutions of each probe in a 1:1 mixture of HEPES buffer and 1-octanol. Solutions were allowed to settle for 1 h and then the fluorescence intensity of each phase was measured. Standard curves of the fluorescence of known concentrations of probes in both solutions were used to determine concentrations.

Structure (SMILES) | preference for Zn(II) over other biologically relevant metal ions | metal ions that inhibit the zinc response | fluorescence response to toxic metals (Cd, Hg, Pb) | metal ions to which the probe does not respond
COc1ccc2n1[B-](F)(F)[N+]1=C(N(CCN(Cc3ccccn3)Cc3ccccn3)Cc3ccccn3)C=CC1=C2c1c(C)cc(C)cc1C [ZincBY-1, reference compound] | responds preferentially to Zn(II) relative to other biologically relevant metal ions |  |  | 
Cc1cc(C)c(C2=C3C=CC(OCCN=[N+]=[N-])=[N+]3[B-](F)(F)n3c2ccc3N(CCN(Cc2ccccn2)Cc2ccccn2)Cc2ccccn2)c(C)c1 [ZincBY-2, N1-(7-(2-azidoethoxy)-5,5-difluoro-10-mesityl-5H-4λ4,5λ4-dipyrrolo[1,2-c:2′,1′-f][1,3,2]diazaborinin-3-yl)-N1,N2,N2-tris(pyridin-2-ylmethyl)ethane-1,2-diamine] |  | does not fluoresce in the presence of Cu(I) and Cu(II), and these ions inhibit the zinc response | exhibits an increase in fluorescence in response to toxic metals Cd and Hg, but does not respond to Pb | does not respond to changes in K, Na, Ca, Mg, Mn, Fe, Co, or Ni concentration
Cc1cc(C)c(C2=C3C=CC(OCCN)=[N+]3[B-](F)(F)n3c2ccc3N(CCN(Cc2ccccn2)Cc2ccccn2)Cc2ccccn2)c(C)c1 [ZincBY-3, N1-(7-(2-aminoethoxy)-5,5-difluoro-10-mesityl-5H-4λ4,5λ4-dipyrrolo[1,2-c:2′,1′-f][1,3,2]diazaborinin-3-yl)-N1,N2,N2-tris(pyridin-2-ylmethyl)ethane-1,2-diamine] |  | does not fluoresce in the presence of Cu(I) or Cu(II), and these ions inhibit the zinc response; also recorded: Fe(II) and Fe(III) also seem to inhibit a zinc response | exhibits a fluorescence response to the toxic metals Cd, Hg, and Pb | does not respond to changes in K, Na, Ca, Mg, Mn, Co, or Ni concentration
CC(=O)NCCOc1ccc2n1[B-](F)(F)[N+]1=C(N(CCN(Cc3ccccn3)Cc3ccccn3)Cc3ccccn3)C=CC1=C2c1c(C)cc(C)cc1C [ZincBY-4, N-(2-((7-((2-(bis(pyridin-2-ylmethyl)amino)ethyl)(pyridin-2-ylmethyl)amino)-5,5-difluoro-10-mesityl-5H-5λ4,6λ4-dipyrrolo[1,2-c:2′,1′-f][1,3,2]diazaborinin-3-yl)oxy)ethyl)acetamide] | responds preferentially to Zn(II) relative to other biologically relevant metal ions | does not fluoresce in the presence of Cu(II) or Hg, and these ions inhibit the zinc response; also recorded: Fe(II), Fe(III), and Co also seem to inhibit the zinc response | exhibits a fluorescence response to the toxic metals Cd, and Pb | does not respond to changes in K, Na, Ca, Mg, Mn, Ni, or Cu(I) concentration
